# Patent US20190175577A1, “METHOD FOR TREATING AMYOTROPHIC LATERAL SCLEROSIS” (UNIVERSITY OF MIAMI, priority 2017, published 2019)
# Legend:
# [1] = system: ALS caused by SOD1 mutations; set-up: species or system human; conditions: in vivo
# Experimental: (§1) Provided herein are the details of a completed, randomized, double-blind placebo controlled phase II trial. The trial was conducted at two sites and three academic medical centers in the United States. An independent medical monitor completed regular review of laboratory reports and adverse events (AEs), as well as real-time review of serious adverse events (SAEs). Eligibility criteria (FIG. 1) aimed to enroll, from across the U.S. and Canada, a population relatively early in the course of ALS caused by SOD1 mutations associated with rapidly progressive disease.
# Randomization (1:1 to Arimoclomol or matching placebo) was stratified by Riluzole use and in block size of two within each stratum, and implemented using a central web-based electronic data capture (EDC) system managed by the Neurological Clinical Research Institute Data Management Center at MGH. The randomization schedule, generated by a study statistician, was provided to each research pharmacy. At randomization, the EDC assigned a subject identification number, which the site-coordinator submitted to the research pharmacy for drug dispensing. […]
# The first participants were randomized and administered 100 mg of Arimoclomol three times daily. […] All data were analyzed following the intent-to-treat principle.
# Assessments were performed in person only at Baseline and Month-2, with remote assessments planned for all other visits. […] In addition, AEs, concomitant medications, study drug dose management, use of ventilatory support, and key study events were recorded at all visits.
# The primary endpoint of safety and tolerability was based on the frequency of AEs, abnormal vital signs, and abnormal laboratory studies above or below pre-defined alert levels. […] In summarizing AEs: (a) if a participant experienced multiple occurrences of the same event, only the occurrence with the worst severity (or highest degree of relatedness to study drug) was counted; and (b) CTCAE events were further classified into subgroups (“AE type”), e.g., pneumonia and bronchitis were both classified as upper/lower respiratory infection.
# [2] = system: ALS caused by SOD1 mutations; experiment: randomized, double-blind placebo controlled phase II trial: efficacy (survival, ALSFRS-R, CAFS); assay type: in vivo, human; conditions: for participants alive (and without PAV or tracheostomy): at 12 months
# Experimental: as §1
# Randomization (1:1 to Arimoclomol or matching placebo) was stratified by Riluzole use and in block size of two within each stratum, and implemented using a central web-based electronic data capture (EDC) system managed by the Neurological Clinical Research Institute Data Management Center at MGH. The randomization schedule, generated by a study statistician, was provided to each research pharmacy. At randomization, the EDC assigned a subject identification number, which the site-coordinator submitted to the research pharmacy for drug dispensing. Encapsulated placebo was matched in color and appearance to active drug. Except for the research pharmacists, pharmacy monitors, and study statisticians, all other personnel and study participants were blinded to treatment assignments.
# The first participants were randomized and administered 100 mg of Arimoclomol three times daily. After enrollment of the first 16 participants (of whom 8 were on Arimoclomol, including 1 subject subsequently excluded per protocol), the dosage was increased to 200 mg administered three times daily for all active participants (which for the Arimoclomol group included three subjects initially started at 100 mg administered three times daily), and all newly enrolled participants received 200 mg three times a day. All data were analyzed following the intent-to-treat principle.
# Assessments were performed in person only at Baseline and Month-2, with remote assessments planned for all other visits. Neurological examination, motor unit number estimation (MUNE), and slow vital capacity (SVC) could only be performed in person. Other assessments, conducted at all visits (in person and remotely), included: vital signs; blood and urine for safety labs; ALSFRS-R (revised ALS Functional Rating Scale), which has been validated for telephone administration; and the forced expiratory volume in 6-seconds (FEV6). Miano et al., Amyotrophic Lateral Sclerosis And Other Motor Neuron Disorders: Official Publication Of The World Federation Of Neurology, Research Group On Motor Neuron Diseases 2004; 5:235-239; Vandevoorde et al., Chest 2005; 127:1560-1564. In addition, AEs, concomitant medications, study drug dose management, use of ventilatory support, and key study events were recorded at all visits.
# Operationalization of remote assessments posed logistical challenges that required the introduction of two innovative features: (1) the collection of vital signs and blood/urine for safety labs in participants' homes, this was accomplished using the services of a mobile medical provider; and (2) the use of FEV6 as the principal measure of respiratory function. The key advantage of FEV6 over SVC is that FEV6 may be self-administered by the participant using a low-cost portable device (e.g., Piko-6, nSpireHealth, Inc.). […] Use of the FEV6 allowed for remote assessment of respiratory function, which otherwise would not have been available for collection in this trial. Reproducibility and normative data for FEV6 are established. Hankinson et al., Chest 2003; 124:1805-1811.
# For efficacy, the principal outcome measure was PAV- and tracheostomy-free survival time, calculated from baseline to PAV (defined as first of seven consecutive days when PAV was used >22 hours/day) or tracheostomy, date of death (if no PAV or tracheostomy), or date of last available follow-up/study contact (if still PAV- and tracheostomy-free by then). […]
compound,measurement,setting,value
[O-][n+]1cccc(/C(Cl)=N/OC[C@H](O)CN2CCCCC2)c1 [Arimoclomol],discontinuation because of adverse event,[1],A single participant stopped Arimoclomol because of a skin rash
same,relatedness of SAEs to study drug,[1],none of which were considered related to study drug
same,serious adverse events (SAEs) reported,[1],7
same,CAFS potential treatment benefit vs placebo,[2]; 95% CI: −2.50 to 11.64,4.57 points
same,"ALSFRS-R rate of decline, average (±SE)",[2]; A4V subgroup,2.6±0.5 points/month
same,treatment difference in ALSFRS-R rate of decline vs placebo,"[2]; A4V subgroup, 95% CI: −0.28 to 2.24, p=0.12",0.98 points/month
same,"win ratio, participant-to-participant comparison between the two groups",[2]; CAFS,1.6924
same,"unadjusted hazard ratio (HR), PAV- and tracheostomy-free survival","[2]; Cox proportional hazards model, Arimoclomol compared to control, 95% CI: 0.29-1.48, p=0.33",0.67
same,hazard ratio (HR) adjusted for baseline ALSFRS-R and Riluzole,"[2]; Cox proportional hazards model, 95% CI: 0.32-1.80, p=0.55",0.77
same,"treatment difference in ALSFRS-R rate of decline, Vonesh model","[2]; Vonesh shared parameter model, 95% CI: −0.33 to 1.86, p=0.16",0.77±0.54 points/month
same,treatment difference in ALSFRS-R rate of decline vs placebo,"[2]; all participants, 95% CI: −0.63 to 1.63, p=0.37",0.5 points/month
same,"ALSFRS-R rate of decline, average (±SE)","[2]; all participants, mixed model",2.5±0.4 points/month
same,participants alive (and without PAV or tracheostomy),"[2]; all participants, Kaplan-Meier",34%
same,participants alive (and without PAV or tracheostomy),[2]; subgroup of A4V participants,29%
same,"direct effect of treatment on survival, Vonesh model",[2]; p=0.62,not significant
same,"CAFS rank score, average (±SE)",[2]; rank scores range from 1 (worst) to 36 (best),20.9±2.5
same,ALSFRS-R difference over a one-year period,"[2]; translated from treatment difference of 0.5-1.0 points/month, not statistically significant",6-12 points
